From US20230123334A1, “AMINO LIPID COMPOUND, PREPARATION METHOD THEREFOR, AND APPLICATION THEREOF” (SHENZHEN SHENXIN BIOTECHNOLOGY CO., LTD., priority 2020, published 2023)

Experiments:
HEK293 cells [1] = assay: Preliminary screening as DNA vectors, GFP transfection of HEK293 cells; format: cell-based; conditions: HEK293 cells; lipid/DOPE liposome with 75 ng plasmid DNA (psin-EGFP-IRES-Puro); number of cells expressing GFP divided by total number of nuclei (Hoechst)
Procedure, shortened: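 Lipid + DOPE liposomes (NaOAc, pH 5.6) complexed w/ 75 ng psin-EGFP-IRES-Puro, 30 min RT; added to 3-5×10^4 HEK293/well, 37° C. Hoechst 0.2 μg/mL at 20-24 h, imaged after further 20-24 h. Efficiency = GFP+ cells / total nuclei.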

HEK293 cells [2] = assay: Preliminary screening as mRNA vectors, EGFP mRNA transfection of HEK293 cells; format: cell-based; conditions: HEK293 cells, 96-well plates, EGFP mRNA 50 ng per well; percentage of GFP fluorescent cells relative to total number of cells (Hoechst)
Procedure, shortened: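 Each well of HEK293 cells received 50 ng of EGFP mRNA. Efficiency was expressed as percent GFP-expressing cells over Hoechst-defined total cell number.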

Compound | Absolute DNA transfection efficiency in HEK293 cells (HEK293 cells [1]) [%] | Absolute mRNA transfection efficiency in HEK293 cells (HEK293 cells [2]) [%]
CCCCCCCCCCCCCCCSc1nc(NCCCN(C)C)nc(SCCCCCCCCCCCC)n1 [Compound S12S15D6] | 4.4 | 0.0
CCCCCCCCCCCCCCCCCCNc1nc(NCCCCCCCCCCCCCCC)nc(NCCN2CCCCC2)n1 [Compound N15N18D4] | 1.6 | 1.9
CCCCCCCCCCCCCCCCCCSc1nc(NCCN2CCOCC2)nc(SCCCCCCCC)n1 [Compound S8S18D2] | 0.9 | 0.0
CCCCCCCCCNc1nc(NCCCCCCCCC)nc(NCCN(C)C)n1 [Compound N9N9D1] | 0.2 | 0.5
CCCCCCCCNc1nc(NCCCCCC)nc(NCCN2CCOCC2)n1 [Compound N6N8D2] | 0.0 | 0.1
CCCCCCCCCCCCN(CCCCCCCCCCCC)c1nc(NCCCCCCCCC)nc(NCCCN2CCOCC2)n1 [N9^2N12D8] | 0.0 | 0.3
CCCCCCCCCCCCCCCCSc1nc(NCCN2CCOCC2)nc(SCCCCCCCCCC)n1 [Compound S10S16D2] | 0.1 | 0.3
CCCCCCCCCCCCCCCCCCSc1nc(NCCN2CCOCC2)nc(SCCCCCCCCCCCCCC)n1 [Compound S14S18D2] | 0.2 | 0.0
CCCCCCCCCCCCCCCCCCSc1nc(NCCN2CCN(C)CC2)nc(SCCCCCCCCCCCCCCC)n1 [Compound S15S18D5] | 0.3 | 0.4
CCCCCCCCCNc1nc(NCCCCCCCC)nc(NCCN2CCCC2)n1 [Compound N8N9D3] | 0.5 | 0.5
CCCCCCCCCCCCCCCCCCNc1nc(NCCCCCCCCCCCCC)nc(NCCN2CCCC2)n1 [Compound N13N18D3] | 0.5 | 21.5
CCCCCCCCCCCCCNc1nc(NCCCCCCCCCCCCC)nc(NCCN2CCCC2)n1 [Compound N13N13D3] | 0.7 | 3.5
CCCCCCCCCCCCCCCCCCSc1nc(NCCCN(C)C)nc(SCCCCCCCCCCCCCC)n1 [Compound S14S18D6] | 1.2 | 0.2
CCCCCCCCCCCCCCCSc1nc(NCCN2CCCC2)nc(SCCCCCCCC)n1 [Compound S8S15D3] | 21.8 | 0.9
CCCCCCCCCCCCCCSc1nc(NCCN2CCCC2)nc(SCCCCCCCCCCC)n1 [Compound S11S14D3] | 6.7 | 17.9
CCCCCCCCCCCCCCCCCCNc1nc(NCCCCCCCCCCC)nc(NCCN(C)C)n1 [Compound N11N18D1] | 3.4 | 7.2
CCCCCCCCCCCCCCCCCCSc1nc(NCCN(CC)CC)nc(SCCCCCCCCC)n1 [Compound S9S18D7] | 11.8 | 1.9
CCCCCCCCCCCCN(CCCCCCCCCCCC)c1nc(NCCN2CCCC2)nc(N(CCCCCCCCCCCC)CCCCCCCCCCCC)n1 [2N12^2N12D3] | 1.3 | 0.0
CCCCCCCCCCCCCCCSc1nc(NCCN2CCOCC2)nc(SCCCCCCCC)n1 [Compound S8S15D2] | 10.8 | 0.0
CCCCCCCCCCCCCCCCSc1nc(NCCCN(C)C)nc(SCCCCCCCCCCCCCC)n1 [Compound S14S16D6] | 1.2 | 0.9
CCCCCCCCCCCCCCCCNc1nc(NCCCCCC)nc(NCCN(CC)CC)n1 [Compound N6N16D7] | 0.0 | 0.5
CCCCCCCCCCCCCCCCCCNc1nc(NCCCCCCCCCCCCCCCCCC)nc(NCCCN2CCOCC2)n1 [Compound N18N18D8] | 0.1 | 0.0
CCCCCCCCCCCCCCCCCCSc1nc(NCCN2CCCC2)nc(SCCCCCCCCCCCCCC)n1 [Compound S14S18D3] | 2.8 | 0.1
